Laboratory results taken from patent publication EP3183252B1, “OXALATE SALT OF RUXOLITINIB” (ratiopharm GmbH, priority 2014, dated 2016).
Counter-ions that a name gives are not always drawn.

Columns and labels:
Type in all cases: physicochemical
[1] = pH-dependencies of solubility at 37°C; conditions: for solubility at 0.5 h / solubility at 1 h / solubility at 24 h / pH dependency of solubility (in words) / solubility: 37°C; for solubility at 1 h / solubility at 24 h: thermodynamic from solid; for pH dependency of solubility (in words): pH 4.5 and 6.8
Description: The intestinal tract obeys different pH ranges, which vary from pH 1 to 2 of the empty stomach, pH 3-5 for stomach filled with chyme, to pH 5-7.5 of the colon.

[2] = Dynamic vapor sorption experiment (hygroscopicity)
Protocol: Vapour sorption experiments were performed in the instrument SPSx-1µ (Projekt Messtechnik, Ulm, Germany) at temperature of 25°C and the humidity cycles as shown below.
A dynamic vapor sorption experiment was performed with Ruxolitinib oxalate. At a constant temperature of 25°C, the substance was exposed to two cycles of varying relative humidity (rh) (40% → 0% →95% (75% r.h. kept constant for 48h) → 0% →40%). Figure 3a presents the relative weight change as a function of time and relative humidity and in […] changes are illustrated as a function of humidity.

[3] = Storage stability: chemical purity by HPLC/UV; conditions: for Chemical purity ([area-%] at λ=230 nm): 40°C/75% rh
Protocol: (§1) Samples were stored in closed and open containers at 25°C/60% rh and at 40°C/75% rh and analyzed after 4, 8 and 12 weeks.
The results of determination of the chemical purity during storage at 40°C/75% rh are summarized. Both salts remained chemically stable when stored under these conditions. Therefore, the analysis of samples, which were stored at 25°C/60% rh, was omitted.

[4] = Storage stability: solid state by XRPD analysis
Protocol: The sample was analyzed on a D8 Advance X-ray powder diffractometer (Bruker-AXS, Karlsruhe, Germany). The sample holder was rotated in a plane parallel to its surface at 20 rpm during the measurement. The raw data were analyzed with the program EVA (Bruker-AXS, Germany). The samples were layered onto a silicon specimen holder
as §1
The solid-state stability was investigated by XRPD analysis. The results of evaluation are summarized. Ruxolitinib phosphate and Ruxolitinib oxalate remained unchanged throughout the observation period.

[5] = 20mM sodium acetate pH 4.5, 0.5 h
[6] = aqueous buffer, 20mM sodium acetate pH 4.5, 1 h
[7] = aqueous buffer, 20mM sodium acetate pH 4.5, 24 h
[8] = aqueous buffer, 50mM KH2PO4 pH 6.8, 1 h
[9] = aqueous buffer, 50mM KH2PO4 pH 6.8, 24 h
[10] = pH 1.2, simulated gastric fluid, 0.1M HCl pH1.2, 1 h
[11] = pH 1.2, simulated gastric fluid, 0.1M HCl pH1.2, 24 h

| SMILES | solubility at 0.5 h [1, 5] | solubility at 0.5 h ([1]; 50mM KH2PO4 pH 6.8, 0.5 h) | solubility at 1 h [1, 6] | solubility at 24 h [1, 7] | solubility at 1 h [1, 8] | solubility at 24 h [1, 9] | solubility at 1 h [1, 10] | solubility at 24 h [1, 11] | solubility at 0.5 h ([1]; pH 1.2, 0.1M HCl pH1.2, 0.5 h) | pH dependency of solubility (in words) [1] | Chemical purity ([area-%] at λ=230 nm) ([3]; closed, 4 weeks) | Chemical purity ([area-%] at λ=230 nm) ([3]; closed, 8 weeks) | Chemical purity ([area-%] at λ=230 nm) ([3]; closed, 12 weeks) | Chemical purity ([area-%] at λ=230 nm) ([3]; closed, t = 00 (= initial)) | Chemical purity ([area-%] at λ=230 nm) ([3]; open, 4 weeks) | Chemical purity ([area-%] at λ=230 nm) ([3]; open, 8 weeks) | Chemical purity ([area-%] at λ=230 nm) ([3]; open, 12 weeks) | Chemical purity ([area-%] at λ=230 nm) ([3]; open, t = 00 (= initial)) | also measured |
| --- | --- | --- | --- | --- | --- | --- | --- | --- | --- | --- | --- | --- | --- | --- | --- | --- | --- | --- | --- |
| N#CC[C@H](C1CCCC1)n1cc(-c2ncnc3[nH]ccc23)cn1 (stereo in doubt) [Ruxolitinib maleate] | 2.8 mg/mL | 2.9 mg/mL | 3.2 mg/mL | 2.4 mg/mL | 2.9 mg/mL | 2.5 mg/mL | 12 mg/mL | 12.2 mg/mL | 12.5 mg/mL | distinct pH dependency | – | – | – | – | – | – | – | – | – |
| N#CC[C@H](C1CCCC1)n1cc(-c2ncnc3[nH]ccc23)cn1 (stereo in doubt) [Ruxolitinib sulfate] | – | – | – | – | – | – | – | – | – | less pH dependency | – | – | – | – | – | – | – | – | solubility ([1]; 20mM sodium acetate pH 4.5, 0.5 h, 30 min): 10.4 mg/mL; solubility ([1]; 20mM sodium acetate pH 4.5, 1 h, 60 min): 10.6 mg/mL; solubility ([1]; 20mM sodium acetate pH 4.5, 24 h, 1440 min): 9.5 mg/mL; solubility ([1]; 50mM KH2PO4 pH 6.8, 0.5 h, 30 min): 9.6 mg/mL; solubility ([1]; 50mM KH2PO4 pH 6.8, 1 h, 60 min): 9.8 mg/mL; solubility ([1]; 50mM KH2PO4 pH 6.8, 24 h, 1440 min): 8.3 mg/mL; solubility ([1]; 0.1M HCl pH1.2, 0.5 h, 30 min): 18.5 mg/mL; solubility ([1]; 0.1M HCl pH1.2, 1 h, 60 min): 18.5 mg/mL; solubility ([1]; 0.1M HCl pH1.2, 24 h, 1440 min): 16.7 mg/mL |
| N#CC[C@H](C1CCCC1)n1cc(-c2ncnc3[nH]ccc23)cn1 [Ruxolitinib oxalate] | 24.1 mg/mL | 21.5 mg/mL | 27.7 mg/mL | 29.9 mg/mL | 23.5 mg/mL | 23.9 mg/mL | 56.3 mg/mL | 57.4 mg/mL | 57.8 mg/mL | – | 100,00% area-% | 99,95% area-% | 99,90% area-% | 99,89 area-% | 100,00% area-% | 99,91% area-% | 99,85% area-% | 99,89 area-% | solid state by XRPD analysis after the DVS experiment, compared to prior [2]: identical; stable upon storage for ([3]; 25°C and 60% relative humidity (RH)): at least 12 weeks; stable upon storage for ([3]; 40°C/75% RH): at least 12 weeks; solubility overall (in words) [1]: good solubility |
| N#CC[C@H](C1CCCC1)n1cc(-c2ncnc3[nH]ccc23)cn1 [Ruxolitinib phosphate] | – | – | – | – | – | – | 43.2 mg/mL | 44 mg/mL | – | – | 99,04% area-% | 99,20% area-% | 99,03% area-% | 99,05 area-% | 99,13% area-% | 99,28% area-% | 99,10% area-% | 99,05 area-% | solubility at 1 h ([1]; 20mM sodium acetate buffer, aqueous buffer, 20mM sodium acetate pH 4.5, 1 h): 6 mg/mL; solubility at 24 h ([1]; 20mM sodium acetate buffer, aqueous buffer, 20mM sodium acetate pH 4.5, 24 h): 6.8 mg/mL; solubility at 1 h ([1]; 50mM KH2PO4 buffer, aqueous buffer, 50mM KH2PO4 pH 6.8, 1 h): 4.7 mg/mL; solubility at 24 h ([1]; 50mM KH2PO4 buffer, aqueous buffer, 50mM KH2PO4 pH 6.8, 24 h): 5.7 mg/mL; solubility (in words) ([1]; higher pH points than pH 1.2): considerably less solubility; solubility (in words) ([1]; pH 1.2): good solubility; Evaluation of XRPD analysis ([4]; 25°C/60% rh, closed, 4 weeks): unchanged; Evaluation of XRPD analysis ([4]; 25°C/60% rh, closed, 8 weeks): unchanged; Evaluation of XRPD analysis ([4]; 25°C/60% rh, closed, 12 weeks): unchanged; Evaluation of XRPD analysis ([4]; 25°C/60% rh, open, 4 weeks): unchanged; Evaluation of XRPD analysis ([4]; 25°C/60% rh, open, 8 weeks): unchanged; Evaluation of XRPD analysis ([4]; 25°C/60% rh, open, 12 weeks): unchanged; Evaluation of XRPD analysis ([4]; 40°C/75% rh, closed, 4 weeks): unchanged; Evaluation of XRPD analysis ([4]; 40°C/75% rh, closed, 8 weeks): unchanged; Evaluation of XRPD analysis ([4]; 40°C/75% rh, closed, 12 weeks): unchanged; Evaluation of XRPD analysis ([4]; 40°C/75% rh, open, 4 weeks): unchanged; Evaluation of XRPD analysis ([4]; 40°C/75% rh, open, 8 weeks): unchanged; Evaluation of XRPD analysis ([4]; 40°C/75% rh, open, 12 weeks): unchanged |
